Data set [1] in a line: Selectivity index, ratio of CC50 for cytotoxicity against HEK293T cells assessed as inhibition of cell growth to EC50 for antiviral activity against SARS-CoV-2 infected in HEK293T cells assessed as inhibition of SARS-CoV-2 RdRp. Type of data set: toxicity, cell-based. The note with it: human, read-out: Ratio CC50/EC50.
In data set [2] the target is Replicase polyprotein 1ab (Severe acute respiratory syndrome coronavirus 2) (UniProt P0DTD1). The experiment in a line: Inhibition of SARS-CoV-2 RdRp mediated RNA synthesis in HEK-293T cells cotransfected with pCoV-GLuc and pCMV6-nsp12/nsp7/nsp8 assessed as reduction in minus strand RNA level at 10 uM by measuring GLuc RNA level for 24 hrs in the presence of coelenterazine-h by Gaussia luciferase reporter assay relative to control. Type of data set: cell-based.

Data set [3] addresses T1, Replicase polyprotein 1ab (Severe acute respiratory syndrome coronavirus 2, UniProt P0DTD1). The experiment in a line: Inhibition of his tagged SARS-CoV-2 nsp12 in HEK-293T cells cotransfected with pCoV-GLuc incubated for 24 hrs in the presence of coelenterazine-h by Gaussia luciferase reporter assay. Type of data set: cell-based.
Data set [4] deals with Human coronavirus OC43. The experiment in a line: Antiviral activity against HCoV-OC43 infected in human HCT-8 cells at a MOI of 0.1 assessed as inhibition of viral replication measured after 5 days by MTS assay. Type of data set: functional, organism-based. The note with it: Betacoronavirus 1, HCT-8, 120 h.
Data set [5] concerns the target Replicase polyprotein 1ab (Severe acute respiratory syndrome coronavirus 2) (UniProt P0DTD1). The experiment in a line: Inhibition of SARS-CoV-2 RdRp mediated RNA synthesis in HEK-293T cells cotransfected with pCoV-GLuc and pCMV6-nsp12/nsp7/nsp8 assessed as reduction in minus strand RNA level by measuring GLuc RNA level for 24 hrs in the presence of coelenterazine-h by Gaussia luciferase reporter assay. Type of data set: cell-based. The note with it: dose 2-10 µM.

The target of data set [6] is T1, Replicase polyprotein 1ab. The experiment in a line: Inhibition of SARS-CoV-2 nsp14 in HEK-293T cells cotransfected with pCoV-GLuc incubated for 24 hrs in the presence of coelenterazine-h by Gaussia luciferase reporter assay. Type of data set: cell-based.
The subject of data set [7] is Human coronavirus NL63. The experiment in a line: Antiviral activity against HCoV-NL63 infected in Rhesus monkey LLC-MK2 cells at a MOI of 0.01 assessed as inhibition of viral replication measured after 120 hrs by MTS assay. The note with it: Human coronavirus NL63, LLC-MK2, 120 h. Type of data set: functional, organism-based.
The target in data set [8] is Replicase polyprotein 1ab (Severe acute respiratory syndrome coronavirus 2) (UniProt P0DTD1). The experiment in a line: Inhibition of SARS-CoV-2 RdRp in HEK-293T cells at 10 uM measured after 24 hrs relative to control. Type of data set: cell-based.
For data set [9] the target is unchanged. The experiment in a line: Inhibition of SARS-CoV-2 RdRp mediated RNA synthesis in HEK-293T cells cotransfected with pCoV-GLuc and pCMV6-nsp12/nsp7/nsp8 assessed as reduction in plus strand RNA level by measuring GLuc RNA level for 24 hrs in the presence of coelenterazine-h by Gaussia luciferase reporter assay. Type of data set: cell-based. Particulars: dose 2-10 µM.

The nature of data set [10]: Cytotoxicity against human HCT-8 cells incubated for 48 hrs by CCK8 method. Type of data set: toxicity, cell-based.
Data set [11] is described as follows: Cytotoxicity against Rhesus monkey LLC-MK2 cells incubated for 48 hrs by method. Type of data set: toxicity, cell-based, Macaca mulatta.
Data set [12] addresses T1, Replicase polyprotein 1ab. The experiment in a line: Binding affinity to SARS-CoV-2 nsp12 expressed in Escherichia coli BL21 (DE3) cells using biotinylated EZ-link NHS-LC-LC assessed as dissociation constant incubated for 180 sec by BLI assay.
A short description of data set [13]: Antiviral activity against SARS-CoV-2 infected in HEK293T cells assessed as inhibition of SARS-CoV-2 RdRp in the presence of coelenterazine-h incubated for 24 hrs by Gaussia luciferase reporter assay. Type of data set: functional, cell-based. Particulars: Homo sapiens, HEK-293T.
Data set [14] deals with T1, Replicase polyprotein 1ab. The experiment in a line: Binding affinity to SARS-CoV-2 nsp12 expressed in Escherichia coli BL21 (DE3) cells using biotinylated EZ-link NHS-LC-LC assessed as dissociation constant at 6.25 to 100 uM incubated for 180 sec by BLI assay.
Data set [15] is described as follows: Cytotoxicity against HEK293T cells assessed as inhibition of cell growth measured after 48 hrs by CCK8 assay. Type of data set: toxicity, cell-based, HEK-293T. Particulars: human.
The test system of data set [16] is Human coronavirus NL63. The experiment in a line: Potency index, ratio of PAP EC50 to test compound EC50 for antiviral activity against HCoV-NL63 infected in Rhesus monkey LLC-MK2 cells assessed as reduction in viru-induced cytopathic effect measured after 120 hrs by MTS assay. Type of data set: functional.
Data set [17] deals with Human coronavirus OC43. The experiment in a line: Potency index, ratio of PAP EC50 to test compound EC50 for antiviral activity against HCoV-OC43 infected in human HCT-8 cells assessed as reduction in virus-induced cytopathic effect measured after 120 hrs by MTS assay. Type of data set: functional.

pEC50, pKd: −log10 of the molar value.

Turning to `CC(C)(C)OC(=O)N1CCC[C@H]1C(=O)Nc1nc(N)ccc1/N=N/c1ccccc1`, the selectivity ratio in data set [1] turned out to be 6.64. For the same molecule, the inhibition in data set [2] is 90%; in data set [5], “Dose-dependent-effect”; in data set [8], 88.5%; in [9], “Dose-dependent-effect”. In addition, the pEC50 is 5.95 in data set [3]; 5.84 in the data set on Human coronavirus OC43 [4]; 5.87 in data set [6]; 5.52 with Human coronavirus NL63 [7]; 5.95 in [13]. Further, the CC50 at 48 h in data set [10], in data set [11] and in data set [15] was over 100000 nM each time. Besides, the Kd result in data set [12] is listed as “Dose-dependent-effect”. Besides, the pKd in data set [14] was 5.62. The “Ratio EC50” value in the data set on Human coronavirus NL63 [16] was 1.85; with Human coronavirus OC43 [17], 3.28.

Values taken from ChEMBL document CHEMBL6109081, “Discovery and optimization of phenazopyridine hydrochloride as novel SARS-CoV-2 RdRp inhibitors” (Eur J Med Chem, 2025).
